Source: article PMC3480206 (Future microbiology, 2012)
Converted amounts (≈) assume the structure as drawn.

How the values were obtained:
EMB-resistant Mtb = conditions: cited from earlier work
[1] = system: Mycobacterium tuberculosis XDR strains; test: microbe, parasite or virus in culture; type: cell-based
[2] = system: Mycobacterium tuberculosis; test: Alamar MIC; type: cell-based; conditions: TAACF

| SMILES | MIC on EMB-resistant Mtb (EMB-resistant Mtb) [µg/mL] | MIC ([1]; Mycobacterium tuberculosis) [µg/mL] | MIC ([1]; XDR, also EMB-resistant, strain 587W1, Microbroth) [µg/mL] | MIC ([2]; ATCC35822, INH-resistant, ATCC 35822, Alamar) [µg/mL] | MIC ([2]; ATCC35838, RIF-resistant, ATCC 35838, Alamar) [µg/mL] | MIC ([2]; CIP-resistant, Alamar) [µg/mL] | MIC ([2]; EMB-resistant, Alamar) [µg/mL] | MIC ([2]; KAN-resistant, Alamar) [µg/mL] |
| --- | --- | --- | --- | --- | --- | --- | --- | --- |
| CC[C@@H](CO)NCCN[C@@H](CC)CO [EMB, ethambutol] | 184 (≈ 901 µM) | – | – | – | – | – | – | – |
| CC(C)=CCC/C(C)=C/CNCCNC1C2CC3CC(C2)CC1C3 (centres unmarked) [SQ109, N-geranyl-N′-(2-adamantyl)ethane-1,2-diamine] | – | 0.2 (≈ 0.605 µM) | 0.20 (≈ 0.605 µM) | 0.78 (≈ 2.36 µM) | ≤ 0.39 | ≤ 0.39 | 0.78 (≈ 2.36 µM) | 0.78 (≈ 2.36 µM) |
